Laboratory results published in PubChem BioAssay AID330 (DTP/NCI, 2004).
Values joined by “and” are separate entries in the source; they are usually repeats but may differ in a detail not shown here. Identical values can stand only once. Toxic doses and inconclusive results are not listed.

Tested on: P388 leukemia ip, CD2F1 mice, survival T/C
Test: NCI In Vivo Anticancer Drug Screen. Data for tumor model P388 Leukemia (intraperitoneal) in CD2F1 (CDF1) mice
Settings: endpoint: median survival time, higher = longer survival
Procedure, shortened: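 Mice carrying the transplanted tumor received test compound or vehicle. Survival was recorded in each group, and the value is the treated-group measurement divided by that of the vehicle-treated control group.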

[1] = dose: 60.0 mg/kg/injection, schedule: Q01DX005 (ip), vehicle: Klucel (hydroxypropylcellulose) (HPC)
[2] = dose: 120.0 mg/kg/injection, schedule: Q01DX005 (ip), vehicle: Klucel (hydroxypropylcellulose) (HPC)
[3] = dose: 100.0 mg/kg/injection, schedule: Q01DX009 (ip), vehicle: suspension in saline
[4] = dose: 200.0 mg/kg/injection, schedule: Q01DX009 (ip), vehicle: suspension in saline
[5] = dose: 50.0 mg/kg/injection, schedule: Q01DX005 (ip), vehicle: Klucel (hydroxypropylcellulose) (HPC)
[6] = dose: 100.0 mg/kg/injection, schedule: Q01DX005 (ip), vehicle: Klucel (hydroxypropylcellulose) (HPC)
[7] = dose: 200.0 mg/kg/injection, schedule: Q01DX005 (ip), vehicle: Klucel (hydroxypropylcellulose) (HPC)
[8] = dose: 60.0 mg/kg/injection, schedule: Q01DX005 (ip), vehicle: saline with Tween-80
[9] = dose: 120.0 mg/kg/injection, schedule: Q01DX005 (ip), vehicle: saline with Tween-80
[10] = dose: 240.0 mg/kg/injection, schedule: Q01DX005 (ip), vehicle: saline with Tween-80
[11] = dose: 50.0 mg/kg/injection, schedule: Q01DX005 (ip), vehicle: saline
[12] = dose: 100.0 mg/kg/injection, schedule: Q01DX005 (ip), vehicle: saline
[13] = dose: 12.5 mg/kg/injection, schedule: Q01DX009 (ip), vehicle: saline with Tween-80
[14] = dose: 100.0 mg/kg/injection, schedule: Q01DX009 (ip), vehicle: saline with Tween-80
[15] = dose: 200.0 mg/kg/injection, schedule: Q01DX009 (ip), vehicle: saline with Tween-80
[16] = dose: 400.0 mg/kg/injection, schedule: Q01DX009 (ip), vehicle: saline with Tween-80

O=C(Nc1cnns1)Oc1ccccc1
T/C (dose: 12.5 mg/kg/injection, schedule: Q01DX009 (ip), vehicle: other): 117 % of control
T/C (dose: 25.0 mg/kg/injection, schedule: Q01DX009 (ip), vehicle: other): 92 % of control
T/C (dose: 50.0 mg/kg/injection, schedule: Q01DX009 (ip), vehicle: other): 93 % of control
T/C (dose: 100.0 mg/kg/injection, schedule: Q01DX009 (ip), vehicle: other): 92 % of control
T/C (dose: 200.0 mg/kg/injection, schedule: Q01DX009 (ip), vehicle: other): 97 % of control

O=[N+]([O-])c1ccccc1S(=O)(=O)N(CCCCCN(S(=O)(=O)c1ccccc1[N+](=O)[O-])S(=O)(=O)c1ccccc1[N+](=O)[O-])S(=O)(=O)c1ccccc1[N+](=O)[O-]
T/C [1]: 89 % of control
T/C [2]: 87 % of control
T/C (dose: 240.0 mg/kg/injection, schedule: Q01DX005 (ip), vehicle: Klucel (hydroxypropylcellulose) (HPC)): 87 % of control

Nc1[nH]c(=S)nc2nc[nH]c12
T/C (dose: 6.25 mg/kg/injection, schedule: Q01DX005 (ip), vehicle: saline with Tween-80): 103 % of control
T/C (dose: 12.5 mg/kg/injection, schedule: Q01DX005 (ip), vehicle: saline with Tween-80): 100 % of control

CCC(=O)n1c(Cl)c(/C=N/NC(N)=S)c2ccccc21
T/C (dose: 100.0 mg/kg/injection, schedule: Q01DX001 (ip), vehicle: Klucel (hydroxypropylcellulose) (HPC)): 95 % of control
T/C (dose: 200.0 mg/kg/injection, schedule: Q01DX001 (ip), vehicle: Klucel (hydroxypropylcellulose) (HPC)): 100 % of control
T/C (dose: 400.0 mg/kg/injection, schedule: Q01DX001 (ip), vehicle: Klucel (hydroxypropylcellulose) (HPC)): 93 % of control

Nc1c(Cl)[nH]cnc1=S
T/C [3]: 106 % of control
T/C [4]: 105 % of control
T/C (dose: 400.0 mg/kg/injection, schedule: Q01DX009 (ip), vehicle: suspension in saline): 99 % of control

Cc1cc(=O)oc2c(C)c3oc4ccncc4c3cc12
T/C [5]: 104 % of control
T/C [6]: 110 % of control
T/C [7]: 107 % of control

COc1cc(/C=C/Cc2cc3c(cc2O)OCO3)cc(OC)c1OC
T/C [8]: 95 % of control
T/C [9]: 90 % of control
T/C [10]: 89 % of control

COc1ccc(C2C3CCN2CC3)cc1 (configuration not stated)
T/C (dose: 6.25 mg/kg/injection, schedule: Q01DX009 (ip), vehicle: saline): 111 % of control
T/C (dose: 12.5 mg/kg/injection, schedule: Q01DX009 (ip), vehicle: saline): 109 % of control

CCC(CC)C(=O)NN(C)C
T/C [11]: 101 % of control
T/C [12]: 100 % of control

CN(C)c1ccc2c(SCC(=O)Nc3ccc(NS(C)(=O)=O)cc3)c3ccc(N(C)C)cc3nc2c1
T/C [5]: 115 % of control
T/C [6]: 117 % of control
T/C [7]: 114 % of control

O=C(O)c1cc(CCCC(=O)c2cc(C(=O)O)c(O)c3ccccc23)c2ccccc2c1O
T/C (dose: 100.0 mg/kg/injection, schedule: Q04DX002 (ip), vehicle: Klucel (hydroxypropylcellulose) (HPC)): 90 % of control

CCc1cccc(C2(C)C(=O)c3ccccc3C2=O)c1
T/C (dose: 100.0 mg/kg/injection, schedule: Q04DX002 (ip), vehicle: saline): 105 % of control
T/C (dose: 200.0 mg/kg/injection, schedule: Q04DX002 (ip), vehicle: saline): 100 % of control
T/C (dose: 400.0 mg/kg/injection, schedule: Q04DX002 (ip), vehicle: saline): 102 % of control

Cc1nc(SCC(N)=O)nc2sc(SCC(N)=O)nc12
T/C (dose: 100.0 mg/kg/injection, schedule: Q04DX002 (ip), vehicle: suspension in saline): 96 % of control
T/C (dose: 200.0 mg/kg/injection, schedule: Q04DX002 (ip), vehicle: suspension in saline): 99 % of control
T/C (dose: 400.0 mg/kg/injection, schedule: Q04DX002 (ip), vehicle: suspension in saline): 98 % of control

CC(=N\[O-])/C(C)=N/O.CC(=N\[O-])/C(C)=N/O.CC(=O)[O-].CC(=O)[O-].O.[Rh+2].[Rh+2]
T/C (dose: 6.25 mg/kg/injection, schedule: Q01DX009 (ip), vehicle: saline with Tween-80): 123 % of control
T/C [13]: 119 % of control

Cc1cc2c(c(=O)o1)C1(C)CC(C)(O2)c2c(cc(C)oc2=O)O1
T/C [8]: 99 % of control
T/C [9]: 95 % of control
T/C [10]: 89 % of control

COc1ccc2nc(C)c(C(=O)O)c(C(=O)O)c2c1
T/C (dose: 50.0 mg/kg/injection, schedule: Q01DX009 (ip), vehicle: suspension in saline): 99 % of control
T/C [3]: 103 % of control
T/C [4]: 108 % of control

COCC1OC1COC (configuration not stated)
T/C [11]: 107 % of control
T/C [12]: 104 % of control
T/C (dose: 200.0 mg/kg/injection, schedule: Q01DX005 (ip), vehicle: saline): 106 % of control

COc1cccc2c(NCCCCCCCCNc3c4ccccc4nc4c(OC)cccc34)c3ccccc3nc12
T/C (dose: 1.25 mg/kg/injection, schedule: Q01DX009 (ip), vehicle: lactic acid): 169 % of control
T/C (dose: 2.5 mg/kg/injection, schedule: Q01DX009 (ip), vehicle: lactic acid): 189 % of control
T/C (dose: 5.0 mg/kg/injection, schedule: Q01DX009 (ip), vehicle: other): 154 % of control

COC(=O)C(O)c1ccc2c(c1)OCO2 (configuration not stated)
T/C [14]: 90 % of control
T/C [15]: 90 % of control
T/C [16]: 104 % of control

O=C(O)c1ccc(OCc2ccccc2)cc1
T/C (dose: 50.0 mg/kg/injection, schedule: Q01DX009 (ip), vehicle: saline): 93 % of control
T/C (dose: 100.0 mg/kg/injection, schedule: Q01DX009 (ip), vehicle: saline): 93 % of control

COc1ccc(C2COc3c(ccc(O)c3C)C2)cc1OC (configuration not stated)
T/C [8]: 97 % of control
T/C [9]: 97 % of control
T/C [10]: 95 % of control

Nc1cccc(C(=O)c2cccc(N)c2)c1
T/C (dose: 100.0 mg/kg/injection, schedule: Q04DX003 (ip), vehicle: saline with Tween-80): 100 % of control
T/C (dose: 200.0 mg/kg/injection, schedule: Q04DX003 (ip), vehicle: saline with Tween-80): 95 % of control
T/C (dose: 400.0 mg/kg/injection, schedule: Q04DX003 (ip), vehicle: saline with Tween-80): 100 % of control

[Mn]=[Se]
T/C (dose: 7.5 mg/kg/injection, schedule: Q01DX005 (ip), vehicle: other): 101 % of control
T/C (dose: 15.0 mg/kg/injection, schedule: Q01DX005 (ip), vehicle: other): 100 % of control and 103 % of control
T/C (dose: 30.0 mg/kg/injection, schedule: Q01DX005 (ip), vehicle: other): 103 % of control and 94 % of control
T/C (dose: 60.0 mg/kg/injection, schedule: Q01DX005 (ip), vehicle: acid diluted with saline): 110 % of control
T/C (dose: 60.0 mg/kg/injection, schedule: Q01DX005 (ip), vehicle: other): 100 % of control

COc1ccc(/C=N/N=c2/sc3ccccc3n2CC(=O)O)cc1
T/C (dose: 100.0 mg/kg/injection, schedule: Q01DX001 (ip), vehicle: saline with Tween-80): 108 % of control
T/C (dose: 200.0 mg/kg/injection, schedule: Q01DX001 (ip), vehicle: saline with Tween-80): 87 % of control

C=C(C(=C)n1nnc(C(=O)OC)c1C(=O)OC)n1nnc(C(=O)OC)c1C(=O)OC
T/C [8]: 102 % of control
T/C [9]: 101 % of control
T/C [10]: 93 % of control

CC1(c2ccccc2)Nc2ccccc2N(C(=O)c2ccccc2)C1c1ccccc1 (configuration not stated)
T/C [1]: 91 % of control
T/C [2]: 90 % of control

Cc1ccc(NC(=S)NCCc2ccccn2)cc1C
T/C [13]: 94 % of control
T/C (dose: 25.0 mg/kg/injection, schedule: Q01DX009 (ip), vehicle: saline with Tween-80): 94 % of control
T/C (dose: 50.0 mg/kg/injection, schedule: Q01DX009 (ip), vehicle: saline with Tween-80): 93 % of control
T/C [14]: 99 % of control and 92 % of control
T/C [15]: 100 % of control
T/C [16]: 105 % of control

OC1(O)CCC1(O)OCCBr (configuration not stated)
T/C [8]: 92 % of control
T/C [9]: 108 % of control

O=C(Cc1nc2ccccc2[nH]c1=O)c1cccnc1
T/C [8]: 99 % of control
T/C [9]: 94 % of control
T/C [10]: 98 % of control

CNC(=O)O[C@H]1CC[C@@]2(C)C(=CC[C@H]3[C@@H]4CC[C@H]([C@H](C)CCCC(C)C)[C@@]4(C)CC[C@@H]32)C1
T/C (dose: 50.0 mg/kg/injection, schedule: Q01DX005 (ip), vehicle: saline with Tween-80): 100 % of control
T/C (dose: 100.0 mg/kg/injection, schedule: Q01DX005 (ip), vehicle: saline with Tween-80): 96 % of control
T/C (dose: 200.0 mg/kg/injection, schedule: Q01DX005 (ip), vehicle: saline with Tween-80): 100 % of control
